Key:
Assay type in all cases: in vivo
[1] = tested on: barnyardgrass (Echinochloa crus-galli, ECHCG); experiment: Pre-emerge test, greenhouse herbicide activity screening; settings: phytotoxicity rating 0-100, 14 days after application
How it was run: (§1)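 Herbicidal damage is scored 0 (none) to 100 (complete plant death) two weeks after a simulated field spray. Rates span 15–1000 g ai/ha, delivered in acetone at 187 l/ha. For post-emergence treatments, plants have 2–3 leaves and the spray carries 0.25% v/v non-ionic surfactant.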

[2] = tested on: sicklepod (Cassia obtusifolia, CASOB); experiment: as above; settings: phytotoxicity rating 0-100, 14 days after application
How it was run: as §1

[3] = tested on: ivyleaf morningglory (Ipomoea hederacea, IPOHE); experiment: as above; settings: phytotoxicity rating 0-100, 14 days after application
How it was run: as §1

[4] = tested on: common ragweed (Ambrosia artemisizfolia L., AMBEL); experiment: as above; settings: phytotoxicity rating 0-100, 14 days after application
How it was run: as §1

[5] = tested on: johnsongrass (Sorghum halepense, SORHA); experiment: as above; settings: phytotoxicity rating 0-100, 14 days after application
How it was run: as §1

[6] = tested on: velvetleaf (Abutilon theophrasti, ABUTH); experiment: as above; settings: phytotoxicity rating 0-100, 14 days after application
How it was run: as §1

[7] = tested on: large crabgrass (Digitaria sanguinalis, DIGSA); experiment: as above; settings: phytotoxicity rating 0-100, 14 days after application
How it was run: as §1

[8] = tested on: green foxtail (Setaria viridis, SETVI); experiment: as above; settings: phytotoxicity rating 0-100, 14 days after application
How it was run: as §1

[9] = tested on: lambsquarters (Chenopodium album, CHEAL); experiment: as above; settings: phytotoxicity rating 0-100, 14 days after application
How it was run: as §1

[10] = tested on: upland rice (Oryza sp., var. Tebonnet, RICE); experiment: Pre-emerge test, crop safety; settings: crop damage rating 0-100, 14 days after application
How it was run: (§2)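 Sandy loam pots; pre-emerge: sown 1 d pre-spray, surface-watered after, then bottom-watered. Post-emerge: sown 8–21 d before, 2–3 leaf stage, + 0.25% v/v NIS, bottom-watered. Acetone, 187 l/ha track spray, 15–1000 g ai/ha. 0–100 injury score, day 14.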

[11] = tested on: field corn (Zea mays L., var. Dekalb 535, CORN); experiment: Pre-emerge test, crop safety; settings: crop damage rating 0-100, 14 days after application
How it was run: as §2

[12] = tested on: redroot pigweed (Amaranthus retroflexus, AMARE); experiment: Pre-emerge test, greenhouse herbicide activity screening; settings: phytotoxicity rating 0-100, 14 days after application
How it was run: as §2

[13] = tested on: barnyardgrass (Echinochloa crus-galli, ECHCG); experiment: Post-emerge test, greenhouse herbicide activity screening; settings: post-emerge, 14 days after application, rating scale 0-100
How it was run: (§3)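 Each test used a mechanized track sprayer delivering 187 l/ha of acetone solution at 15–1000 g ai/ha. Post-emerge foliage at 2–3 leaves was treated with added 0.25% v/v non-ionic surfactant and bottom-watered only. Injury was assessed on day 14, where 100 means total kill.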

[14] = tested on: sicklepod (Cassia obtusifolia, CASOB); experiment: as above; settings: post-emerge, 14 days after application, rating scale 0-100
How it was run: as §3

[15] = tested on: ivyleaf morningglory (Ipomoea hederacea, IPOHE); experiment: as above; settings: post-emerge, 14 days after application, rating scale 0-100
How it was run: as §3

[16] = tested on: redroot pigweed (Amaranthus retroflexus, AMARE); experiment: as above; settings: post-emerge, 14 days after application
How it was run: as §3

[17] = tested on: common ragweed (Ambrosia artemisizfolia L., AMBEL); experiment: as above; settings: post-emerge, 14 days after application, rating scale 0-100
How it was run: as §3

[18] = tested on: johnsongrass (Sorghum halepense, SORHA); experiment: as above; settings: post-emerge, 14 days after application, rating scale 0-100
How it was run: as §3

[19] = tested on: velvetleaf (Abutilon theophrasti, ABUTH); experiment: as above; settings: post-emerge, 14 days after application, rating scale 0-100
How it was run: as §3

[20] = tested on: large crabgrass (Digitaria sanguinalis, DIGSA); experiment: as above; settings: post-emerge, 14 days after application, rating scale 0-100
How it was run: as §3

[21] = tested on: green foxtail (Setaria viridis, SETVI); experiment: as above; settings: post-emerge, 14 days after application, rating scale 0-100
How it was run: as §3

[22] = tested on: lambsquarters (Chenopodium album, CHEAL); experiment: as above; settings: post-emerge, 14 days after application, rating scale 0-100
How it was run: as §3

[23] = tested on: upland rice (Oryza sp., var. Tebonnet, RICE); experiment: Post-emerge test, crop safety; settings: post-emerge, 14 days after application, rating scale 0-100
How it was run: as §1

[24] = tested on: field corn (Zea mays L., var. Dekalb 535, CORN); experiment: Post-emerge test, crop safety; settings: post-emerge, 14 days after application, rating scale 0-100
How it was run: as §1

COC(=O)N(C(=O)OC)c1c(OC)c(Cl)cc(F)c1-n1c(=O)cc(C(F)(F)F)n(C)c1=O [4-2]
Pre-emerge Herbicidal Activity ECHCG ([1]; 63 g ai/ha): 0
Pre-emerge Herbicidal Activity ECHCG ([1]; 250 g ai/ha): 80
Pre-emerge Herbicidal Activity CASOB ([2]; 63 g ai/ha): 0
Pre-emerge Herbicidal Activity CASOB ([2]; 250 g ai/ha): 80
Pre-emerge Herbicidal Activity IPOHE ([3]; 63 g ai/ha): 0
Pre-emerge Herbicidal Activity IPOHE ([3]; 250 g ai/ha): 100
Pre-emerge Herbicidal Activity AMBEL ([4]; 63 g ai/ha): 30
Pre-emerge Herbicidal Activity AMBEL ([4]; 250 g ai/ha): 100
Pre-emerge Herbicidal Activity SORHA ([5]; 63 g ai/ha): 0
Pre-emerge Herbicidal Activity SORHA ([5]; 250 g ai/ha): 70
Pre-emerge Herbicidal Activity ABUTH ([6]; 63 g ai/ha): 100
Pre-emerge Herbicidal Activity ABUTH ([6]; 250 g ai/ha): 100
Pre-emerge Herbicidal Activity DIGSA ([7]; 63 g ai/ha): 40
Pre-emerge Herbicidal Activity DIGSA ([7]; 250 g ai/ha): 90
Pre-emerge Herbicidal Activity SETVI ([8]; 63 g ai/ha): 70
Pre-emerge Herbicidal Activity SETVI ([8]; 250 g ai/ha): 100
Pre-emerge Herbicidal Activity CHEAL ([9]; 63 g ai/ha): 100
Pre-emerge Herbicidal Activity CHEAL ([9]; 250 g ai/ha): 100
Pre-emerge Herbicidal Activity RICE ([10]; 63 g ai/ha): 10
Pre-emerge Herbicidal Activity RICE ([10]; 250 g ai/ha): 20
Pre-emerge Herbicidal Activity CORN ([11]; 63 g ai/ha): 0
Pre-emerge Herbicidal Activity CORN ([11]; 250 g ai/ha): 5
Pre-emerge Herbicidal Activity AMARE ([12]; 63 g ai/ha): 100
Pre-emerge Herbicidal Activity AMARE ([12]; 250 g ai/ha): 100
phytotoxicity rating ECHCG ([13]; 63 g ai/ha): 0
phytotoxicity rating ECHCG ([13]; 250 g ai/ha): 0
phytotoxicity rating CASOB ([14]; 63 g ai/ha): 0
phytotoxicity rating CASOB ([14]; 250 g ai/ha): 40
phytotoxicity rating IPOHE ([15]; 63 g ai/ha): 70
phytotoxicity rating IPOHE ([15]; 250 g ai/ha): 100
phytotoxicity rating AMARE ([16]; 63 g ai/ha, rating scale 0-100 (0 no damage, 100 complete death)): 50
phytotoxicity rating AMARE ([16]; 250 g ai/ha, rating scale 0-100): 85
phytotoxicity rating AMBEL ([17]; 63 g ai/ha): 0
phytotoxicity rating AMBEL ([17]; 250 g ai/ha): 30
phytotoxicity rating SORHA ([18]; 63 g ai/ha): 0
phytotoxicity rating SORHA ([18]; 250 g ai/ha): 0
phytotoxicity rating ABUTH ([19]; 63 g ai/ha): 70
phytotoxicity rating ABUTH ([19]; 250 g ai/ha): 100
phytotoxicity rating DIGSA ([20]; 63 g ai/ha): 0
phytotoxicity rating DIGSA ([20]; 250 g ai/ha): 0
phytotoxicity rating SETVI ([21]; 63 g ai/ha): 0
phytotoxicity rating SETVI ([21]; 250 g ai/ha): 20
phytotoxicity rating CHEAL ([22]; 63 g ai/ha): 40
phytotoxicity rating CHEAL ([22]; 250 g ai/ha): 95
phytotoxicity rating RICE (crop damage) ([23]; 63 g ai/ha): 0
phytotoxicity rating RICE (crop damage) ([23]; 250 g ai/ha): 30
phytotoxicity rating CORN (crop damage) ([24]; 63 g ai/ha): 0
phytotoxicity rating CORN (crop damage) ([24]; 250 g ai/ha): 10
